Test results published in patent publication US20230355705A1, “DISCOVERY OF YEATS2 YEATS DOMAIN INHIBITORS AS NOVEL ANTI-CANCER AGENTS” (The University of Hong Kong, priority 2022, published 2023).
Non-standard residues stand in square brackets, D forms with d. Residues, ends and D or L forms follow the SMILES beside them. *: point of attachment. Benzofuran(2-CO) = O=C(c1cc2ccccc2o1)*; X1 = O=C(c1cc2ccc(Br)cc2o1)*; NMeA = CN[C@@H](C)C(=O)O; Ms = CS(=O)(=O)*

Molecular target: T1, YEATS2 YEATS domain (Homo sapiens, UniProt Q9ULM3)
T1 construct: 201-332 containing an N-terminal 10×His-SUMO tag was overexpressed in Escherichia coli BL21 (DE3); 10×His-SUMO (N, cleaved yes); made in house; host or cells: Escherichia coli BL21 (DE3)
T1 sequence (Q9ULM3 201-332 limits assumed): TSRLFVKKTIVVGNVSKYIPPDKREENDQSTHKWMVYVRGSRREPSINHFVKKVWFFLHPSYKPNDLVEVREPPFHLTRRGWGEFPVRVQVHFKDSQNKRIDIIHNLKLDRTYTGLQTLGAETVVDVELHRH
Assay: competitive photo-cross-linking assay
Assay type: binding
Protocol: The probes in the absence or presence of different concentrations of competitors were incubated with recombinant proteins (5 or 20 ng/µL) in binding buffer (50 mM HEPES, 150 mM NaCl, 2 mM MgCl2, 0.1% Tween-20, 20% glycerol, pH 7.5, with 50 ng/µL BSA) for 10 min at 4° C. Then, the samples were irradiated at 365 nm using UV lamp for 20 min in 96-well on ice.
To the prepared photo-cross-linking samples, we added 100 µM rhodamine-N3 for in-gel fluorescence (10 mM stock in DMSO), followed by 1 mM TCEP (freshly prepared 50 mM stock in H2O) and 100 µM TBTA (10 mM stock in DMSO); finally, the reactions were initiated by the addition of 1 mM CuSO4 (freshly prepared 50 mM stock in H2O). The reactions were incubated for 1 h at room temperature (22 to 25° C.) with regular vortexing. The reactions were quenched by adding 5 volumes of ice-cold acetone and placed at — 20° C. overnight to precipitate proteins.
Samples after protein precipitation were centrifuged at 13,000 × g for 5 min at 4° C. The supernatant was discarded, and the pellet was washed with ice-cooled acetone and air-dried for 10 min. The proteins were resuspended in 1 × LDS sample loading buffer (Invitrogen, Waltham, MA) with 50 mM DTT and heated at 95° C. for 8 min. Samples were then resolved by SDS-PAGE. […]
YEATS domain of YEATS2 is newly identified as histone benzoylation reader. […]

| SMILES | IC50 (Table 2) [nM] | inhibitory activity / potency against YEATS2 YEATS (in words) |
| --- | --- | --- |
| C[C@H](NC(=O)[C@H](CO)NC(=O)[C@H](CCCCNC(=O)c1cc2ccccc2o1)NS(C)(=O)=O)C(=O)N1CCC[C@H]1C(N)=O [MsKSAP] (Ms-K(Benzofuran(2-CO))SAP-NH2) | 600 |  |
| C[C@@H](C(=O)N1CCC[C@H]1C(N)=O)N(C)C(=O)[C@H](CO)NC(=O)[C@H](CCCCNC(=O)c1cc2ccc(Br)cc2o1)NS(C)(=O)=O [HC18] (Ms-K(X1)S[NMeA]P-NH2) |  | maintained the inhibitory activity |
